Data reported in article PMC8524858, “Dual inhibition of αvβ6 and αvβ1 reduces fibrogenesis in lung tissue explants from patients with IPF” (Respiratory Research, 2021).

What was measured:
human integrin αvβ3 = biological target: T1, human integrin αvβ3 (Homo sapiens, UniProt P05106+P06756); test: Integrin ligand-binding assay, αvβ3 (vitronectin ligand)
T1 construct: purchased R&D Systems 3050-AV
Experimental: (§1) Integrin ligand-binding assays were performed similar to that previously described.
(§2) Microplates were coated with recombinant human integrins dissolved in PBS (2 µg/ml, overnight at room temperature). Following removal of the coating solution, plates were washed with PBS. Plates were blocked with 200 µL/well of blocking buffer (2% bovine serum albumin [BSA] in PBS) at 37 °C for 1 h. […] Plates were incubated for 2 h at 25 °C, washed, and incubated for 1 h with biotin-labeled anti-fibronectin or anti-LAP antibodies (for αvβ1 or αvβ6/αvβ8, respectively).

human integrin αvβ5 = biological target: T2, human integrin αvβ5 (Homo sapiens, UniProt P06756+P18084); test: Integrin ligand-binding assay, αvβ5 (vitronectin ligand)
T2 construct: purchased R&D Systems 2528-AV
T2 sequence (P06756 31-992 limits assumed): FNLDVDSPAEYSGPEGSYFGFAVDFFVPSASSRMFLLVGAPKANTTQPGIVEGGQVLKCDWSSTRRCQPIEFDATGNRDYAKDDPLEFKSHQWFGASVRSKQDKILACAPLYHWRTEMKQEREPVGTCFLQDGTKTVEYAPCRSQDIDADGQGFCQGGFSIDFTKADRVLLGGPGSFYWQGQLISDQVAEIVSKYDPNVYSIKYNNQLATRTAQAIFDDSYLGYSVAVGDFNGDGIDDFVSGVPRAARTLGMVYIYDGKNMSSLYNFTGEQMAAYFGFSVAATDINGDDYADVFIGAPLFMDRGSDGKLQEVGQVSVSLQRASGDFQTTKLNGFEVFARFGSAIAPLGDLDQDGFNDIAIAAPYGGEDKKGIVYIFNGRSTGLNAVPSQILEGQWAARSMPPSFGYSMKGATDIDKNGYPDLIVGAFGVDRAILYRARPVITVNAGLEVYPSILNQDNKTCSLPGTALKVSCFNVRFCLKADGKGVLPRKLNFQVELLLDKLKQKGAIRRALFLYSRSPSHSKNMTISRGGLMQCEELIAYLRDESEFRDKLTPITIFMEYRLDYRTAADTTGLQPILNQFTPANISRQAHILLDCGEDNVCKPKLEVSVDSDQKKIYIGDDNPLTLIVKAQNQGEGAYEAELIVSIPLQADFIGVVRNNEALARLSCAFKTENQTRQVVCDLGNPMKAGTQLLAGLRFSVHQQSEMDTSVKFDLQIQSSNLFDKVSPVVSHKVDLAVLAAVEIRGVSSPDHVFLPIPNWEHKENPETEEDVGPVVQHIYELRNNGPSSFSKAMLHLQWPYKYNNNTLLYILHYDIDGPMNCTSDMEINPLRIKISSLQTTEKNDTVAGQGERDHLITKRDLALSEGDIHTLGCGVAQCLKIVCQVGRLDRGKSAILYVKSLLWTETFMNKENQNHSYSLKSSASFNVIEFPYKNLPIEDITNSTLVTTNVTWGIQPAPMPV
T2 sequence (P18084 24-719 limits assumed): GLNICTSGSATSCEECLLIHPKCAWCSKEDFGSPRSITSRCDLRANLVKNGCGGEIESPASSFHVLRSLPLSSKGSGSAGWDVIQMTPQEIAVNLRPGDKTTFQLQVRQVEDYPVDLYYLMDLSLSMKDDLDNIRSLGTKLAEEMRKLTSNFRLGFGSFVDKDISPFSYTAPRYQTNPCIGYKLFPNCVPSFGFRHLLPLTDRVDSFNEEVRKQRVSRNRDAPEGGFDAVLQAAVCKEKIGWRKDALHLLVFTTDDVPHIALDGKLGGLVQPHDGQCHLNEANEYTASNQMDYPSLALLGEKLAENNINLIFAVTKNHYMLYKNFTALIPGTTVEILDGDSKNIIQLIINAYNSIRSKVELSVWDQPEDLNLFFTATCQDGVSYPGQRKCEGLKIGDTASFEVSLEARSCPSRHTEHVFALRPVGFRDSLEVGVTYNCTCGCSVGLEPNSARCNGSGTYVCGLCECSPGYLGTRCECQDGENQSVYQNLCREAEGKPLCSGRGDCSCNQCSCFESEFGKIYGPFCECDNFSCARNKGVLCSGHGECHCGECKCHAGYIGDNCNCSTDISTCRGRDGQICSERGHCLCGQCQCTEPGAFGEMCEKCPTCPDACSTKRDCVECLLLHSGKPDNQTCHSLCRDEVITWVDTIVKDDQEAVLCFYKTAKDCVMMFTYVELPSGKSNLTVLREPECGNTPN
Experimental: as §1, §2

human integrin αvβ6 = biological target: T3, human integrin αvβ6 (Homo sapiens, UniProt P06756+P18564); test: Integrin ligand-binding assay, αvβ6 (LAP ligand)
T3 construct: purchased ACROBiosystems or R&D Systems IT6-H52E1 or 3817-AV
T3 sequence (P06756 31-992 limits assumed): as the sequence (P06756 31-992 limits assumed) above
T3 sequence (P18564 22-707 limits assumed): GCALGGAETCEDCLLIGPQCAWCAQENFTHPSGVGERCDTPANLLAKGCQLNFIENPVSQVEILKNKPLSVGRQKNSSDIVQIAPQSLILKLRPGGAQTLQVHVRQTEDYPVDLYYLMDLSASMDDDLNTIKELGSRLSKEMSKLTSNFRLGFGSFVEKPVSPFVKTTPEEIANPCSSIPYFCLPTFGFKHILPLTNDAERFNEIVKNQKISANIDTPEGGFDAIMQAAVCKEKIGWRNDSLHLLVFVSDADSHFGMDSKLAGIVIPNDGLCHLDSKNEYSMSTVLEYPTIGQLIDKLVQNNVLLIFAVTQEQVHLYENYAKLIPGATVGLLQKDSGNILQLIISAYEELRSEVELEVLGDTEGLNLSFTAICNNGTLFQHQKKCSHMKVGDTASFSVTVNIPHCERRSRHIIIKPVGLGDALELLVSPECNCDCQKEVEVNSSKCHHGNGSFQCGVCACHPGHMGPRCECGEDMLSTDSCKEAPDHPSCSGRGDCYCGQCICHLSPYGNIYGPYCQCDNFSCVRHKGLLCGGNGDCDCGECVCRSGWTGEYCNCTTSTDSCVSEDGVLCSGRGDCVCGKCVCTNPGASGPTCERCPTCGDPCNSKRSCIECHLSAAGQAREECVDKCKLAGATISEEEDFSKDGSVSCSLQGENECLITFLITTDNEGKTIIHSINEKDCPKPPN
Experimental: as §1, §2

[1] = system: PCLSs prepared from explanted lung tissue from patients with IPF; test: Fibrotic gene expression in PCLSs from IPF lung explants; type: cell-based, human
Source text: PCLSs were generated from explanted lung tissue from patients with IPF and cultured as previously described. Mouse PCLSs were generated and cultured as previously described. Messenger ribonucleic acid (mRNA) levels in lysates prepared from snap-frozen tissue slices were quantified via NanoString PlexSet reagents and nCounter SPRINT Profiler (NanoString; Seattle, WA, USA; Additional file 1: Table S2) or TaqMan primers/probes on a Bio-Rad CFX96 thermocycler (Bio-Rad; Hercules, CA, USA; Additional file 1: Table S3).
Human PCLSs were generated from lung tissue explants from patients with IPF undergoing transplant surgery and cultured based on previously reported methods (E7-E12). Slices of tissue (400 µm) were cut using a Compresstome VF-300-0Z (Precisionary Instruments; Natick, MA, USA).
Slices from each individual core (human) or mouse were distributed among the treatment groups to control for variability in the fibrotic injury within the tissue. […] After 3 or 7 days in culture, slices were washed and snap-frozen. Viability of sentinel slices on Days 0/1 and 3/7 was determined using WST-1 Cell Proliferation Reagent (Sigma 5015944001; St Louis, MO, USA).
For all figures (except Fig. 2B, Fig. S2, and Fig. S4), snap-frozen tissue slices were incubated in one-third RLT buffer (Qiagen #79216; Venlo, Netherlands) supplemented with 2 mg/ml proteinase K (Sigma-Aldrich #3115887001; St Louis, MO, USA) at 55 °C for 2 h 45 min, with periodic vortexing to generate ribonucleic acid (RNA)-compatible tissue lysate. This lysate was incubated overnight with probes from a custom fibrosis gene panel and NanoString PlexSet reagents (Table S2). The following day, samples were analyzed on a NanoString nCounter SPRINT Profiler (NanoString; Seattle, WA, USA). Messenger RNA (mRNA) counts were normalized to housekeeping genes (GUSB, HPRT1, RPLP0, and/or POLR1B) and total mRNA counts, relative to vehicle-treated control from the same experiment, are reported.

[2] = system: IPF lung fibroblast adhesion to LAP; test: Primary cell LAP adhesion assay (cell impedance), IPF HLF; type: cell-based; conditions: Homo sapiens, HLFs isolated from fibrotic (IPF) lung tissue, read-out: IC50 for blocking adhesion to LAP
Experimental: (§3) Adhesion of primary human lung cells to LAP was quantified using the xCELLigence RTCA MP instrument (ACEA Biosciences; San Diego, CA, USA) via cell impedance measurements similar to that previously described.
(§4) Adhesion assays were performed using the xCELLigence RTCA MP instrument (ACEA Biosciences; San Diego, CA, USA) on 96-well PET plates (ACEA Biosciences; 300600910) via a cell impedance measurement similar to one previously described (E6). Plates were coated with LAP (Sino Biological; 10804-H08H1) overnight at 4 °C and blocked with BSA for 2 h at 37 °C. NHLF (40,000 cells/well), dHLF (40,000 cells/well), or NHBE (20,000 cells per well) in FBS-free media were combined with small-molecule integrin inhibitors or antibodies in the plates and incubated at 37 °C with 5% CO2. […] Anti-αv antibody, 17E6, and anti-β1 antibody, P5D2, were tested at a single concentration (10 μg/ml). Cell impedance (cell index) was measured at baseline and every 3 min for up to 24 h using xCELLigence RTCA 2.1.0 Software (ACEA Biosciences). […] Geometric mean IC50 was calculated for each compound following repeat analyses of multiple donor cells.

[3] = system: normal human bronchial epithelial cell adhesion to LAP (αvβ6 integrin-mediated); test: Primary cell LAP adhesion assay (cell impedance), NHBE; type: cell-based; conditions: normal human bronchial epithelial cells, read-out: IC50 for inhibition of adhesion to LAP
Experimental: as §3, §4

other αv integrins = test: Human integrin ligand-binding assays, selectivity over the panel
Experimental: as §1
Microplates were coated with recombinant human integrins dissolved in PBS (2 µg/ml, overnight at room temperature). Following removal of the coating solution, plates were washed with PBS. Plates were blocked with 200 µL/well of blocking buffer (2% bovine serum albumin [BSA] in PBS) at 37 °C for 1 h. Serial dilutions of test compounds and 2 µg/ml of recombinant ligands were added: fibronectin (R&D Systems #1918-Fn) for integrin αvβ1, LAP (Sino Biological #10804-H08H1; Beijing, China) for integrins αvβ6 and αvβ8, or biotin-tagged vitronectin (Molecular Innovations, Inc. #HVNUBIO) for integrins αvβ3 and αvβ5 in binding/wash buffer (50 mM Tris-HCl, pH 7.5; 0.1% BSA, NaCl 150 mM; 0.02% Tween-20; 1 mM CaCl2; 1 mM MnCl2; 1 mM MgCl2). Plates were incubated for 2 h at 25 °C, washed, and incubated for 1 h with biotin-labeled anti-fibronectin or anti-LAP antibodies (for αvβ1 or αvβ6/αvβ8, respectively). After washing, bound antibody was incubated with peroxidase-conjugated streptavidin (Thermo Fisher #21134; 1:2000 dilution) for 30 minutes (min) at room temperature. Following an additional washing step, 100 μL TMB substrate (BD Biosciences #555214; San Jose, CA, USA) was added and integrin binding was quantified by measuring absorbance at 450 nm by a Tecan Spark 10M plate reader (Tecan; Männedorf, Switzerland).

[4] = 7 days, PLN-74809 200 nM, relative to vehicle (Fig. 6B)

T1 sequence (P06756 31-992 limits assumed): as the sequence (P06756 31-992 limits assumed) above
T1 sequence (P05106 27-718 limits assumed): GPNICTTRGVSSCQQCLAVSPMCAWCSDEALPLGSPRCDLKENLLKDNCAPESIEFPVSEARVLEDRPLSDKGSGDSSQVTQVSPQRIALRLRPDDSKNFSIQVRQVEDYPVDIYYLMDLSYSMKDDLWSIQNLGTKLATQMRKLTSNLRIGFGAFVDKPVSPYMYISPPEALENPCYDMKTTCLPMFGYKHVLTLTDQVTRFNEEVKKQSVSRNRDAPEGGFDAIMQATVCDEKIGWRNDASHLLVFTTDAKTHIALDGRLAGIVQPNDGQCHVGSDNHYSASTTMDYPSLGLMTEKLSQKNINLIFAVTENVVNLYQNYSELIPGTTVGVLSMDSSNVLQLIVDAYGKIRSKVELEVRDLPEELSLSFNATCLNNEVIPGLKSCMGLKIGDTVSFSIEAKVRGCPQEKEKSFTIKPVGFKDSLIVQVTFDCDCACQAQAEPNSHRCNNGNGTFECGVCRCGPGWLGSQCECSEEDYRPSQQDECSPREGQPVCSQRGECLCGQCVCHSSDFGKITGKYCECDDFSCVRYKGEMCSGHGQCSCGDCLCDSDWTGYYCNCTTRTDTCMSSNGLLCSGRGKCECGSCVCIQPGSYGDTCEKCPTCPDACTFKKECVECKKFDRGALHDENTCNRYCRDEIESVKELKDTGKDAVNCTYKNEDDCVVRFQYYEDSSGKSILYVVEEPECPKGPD

**Q.** Which results are given for `COCCN(CCCCc1ccc2c(n1)NCCC2)CC[C@H](Nc1ncnc2ccccc12)C(=O)O` [PLN-74809]?
**A.** IC50 (human integrin αvβ3): > 10000 nM; Fold selectivity (vs αvβ6) (human integrin αvβ3; ligand binding): > 1754×; IC50 (human integrin αvβ5): 6990 nM; Fold selectivity (vs αvβ6) (human integrin αvβ5; ligand binding): 1226×; IC50 (human integrin αvβ6): 5.7 nM; Fold selectivity (vs αvβ6) (human integrin αvβ6; ligand binding): 1×; reduction of COL1A1 mRNA expression ([1]; 7-day incubation, Compound A 471 nM, 3G9 0.5 µg/ml, PLN-74809 1.82 µM, ALK5i R-268712 1 µM, vs vehicle (Fig. 1A)): 54%; reduction of COL1A1 mRNA expression ([1]; 7 days, PLN-74809 200 nM, nintedanib 75 nM, pirfenidone 50 µM, vs DMSO (Fig. 6A)): 42%; reduction of COL3A1 expression [1, 4]: 30%; reduction of SERPINE1 expression [1, 4]: 39%; reduction of TIMP1 expression [1, 4]: 26%; reduction of collagen gene expression ([1]; at concentrations as low as 2 nM, explanted tissue from a patient with IPF): ~ 50%; lowest concentration sufficient to significantly reduce COL1A1 expression ([1]; dose titration, PCLSs from a single patient with IPF (Fig. S1C)): 2 nM; IC50 [2]: 23.5 nM; IC50 [3]: 39.3 nM; selectivity over other αv integrins (other αv integrins): ≥ 445 fold
